Data set [1] has as its target T1, uPA (Homo sapiens, UniProt P00749). To be noted: literature; cited from earlier work.
The subject of the next data set is thrombin. The conditions noted are these: literature; cited from earlier work.
In the next data set the target is tPA (Homo sapiens, UniProt P00750). The conditions noted are these: literature; cited from earlier work.
The test system of the next data set is factor Xa. The conditions noted are these: literature; cited from earlier work.
The target in another data set is plasma kallikrein (Homo sapiens, UniProt P03952). The conditions noted are these: literature; cited from earlier work.
Chain of plasma kallikrein (P03952 391-638 limits assumed, species assumed): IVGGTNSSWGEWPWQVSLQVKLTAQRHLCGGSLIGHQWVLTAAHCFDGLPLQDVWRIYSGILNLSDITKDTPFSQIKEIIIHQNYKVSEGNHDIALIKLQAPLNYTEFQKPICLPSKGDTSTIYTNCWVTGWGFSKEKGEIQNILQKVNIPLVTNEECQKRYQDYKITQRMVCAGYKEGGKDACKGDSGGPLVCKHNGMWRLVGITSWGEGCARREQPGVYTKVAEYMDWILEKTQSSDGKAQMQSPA
Chain of plasma kallikrein (P03952 20-390 partner limits assumed, species assumed): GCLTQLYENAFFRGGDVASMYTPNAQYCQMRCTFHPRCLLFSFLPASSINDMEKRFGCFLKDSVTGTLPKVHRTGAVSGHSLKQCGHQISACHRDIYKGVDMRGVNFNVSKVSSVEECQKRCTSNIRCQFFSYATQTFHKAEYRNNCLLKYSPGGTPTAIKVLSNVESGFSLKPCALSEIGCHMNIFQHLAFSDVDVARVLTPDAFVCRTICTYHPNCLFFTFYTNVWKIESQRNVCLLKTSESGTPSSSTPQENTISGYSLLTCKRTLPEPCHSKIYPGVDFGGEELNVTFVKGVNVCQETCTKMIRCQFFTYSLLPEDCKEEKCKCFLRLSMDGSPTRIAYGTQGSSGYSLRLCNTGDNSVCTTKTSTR
Data set [2] has as its system murine lung carcinoma model. The conditions noted are these: literature; cited from earlier work.
For a further data set, the system named is MDA-MB-231 cells. In words: Cell viability assay (CellTiter-Glo, ATP concentration). Type of data set: cell-based, human. The conditions noted are these: 24 hrs, UK18 1-100 µM. As to the method: MDA-MB-231 human breast adenocarcinoma cells (ATCC) were cultured in RPMI medium (RPMI-1640 containing 25 mM HEPES and L-glutamine; NEAA, 100X Stock, and 1 unit/ml penstrep, 20'000 units/ml penicillin and 20'000 units/ml streptomycin stock, Lonza, Visp, Switzerland) supplemented with 5% v/v fetal calf serum (FCS, Lonza) at 37 °C in a humidified 5% CO2/95% air atmosphere.
The effect of UK18 on the MDA-MB-231 cell viability was measured by using the CellTiter-Glo Luminescent Cell Viability Assay (Promega, Madison, WI, USA). The assay measures the number of viable cells in culture based on the ATP concentration. 200 µL of 2.0 x 10^5 MDA-MB-231 cells/ml in RPMI media (FCS-free) supplemented with 0.2% w/v BSA were inoculated at a density of 4.0 x 10^4 cells per well in 96-well opaque walled polystyrene plate tissue culture treated (Corning Incorporated, Corning, NY, USA) for 24 hrs at 37 °C in a humidified 5% CO2/95% air atmosphere. The culture supernatant was then removed and 100 µl of new RPMI media (FCS-free) supplemented with 0.2% w/v BSA containing different three-fold dilution concentrations of UK18 (1, 3.3, 10, 33 and 100 µM) were added to the cells and the plate incubated for 24 hrs at 37 °C in a humidified 5% CO2/95% air atmosphere. […] The luminescence signal was finally recorded using a Tristar LB 941 microplate reader (Berthold Technologies, Bad Wildbad, Germany). […]

The target in data set [3] is T1, uPA. In words: Activity determination of chemically synthesized inhibitors, residual protease activity. Type of data set: biochemical. More on the design: human uPA (UPA-LMW, from human urine, 33 kDa); purchased Molecular Innovations, Novi, MI, USA UPA-LMW; host or cells: human urine. To be noted: synthetic peptide-TBMB conjugate, pH 7.4, 25°C. The procedure:
(§1) Peptides with a free amine at the N-terminus and an amide at the C-terminus were chemically synthesized on a 50 mg to 1 g scale by solid phase chemistry (JPT Peptide Technologies, Berlin, Germany or GL Biochem Ltd., Shanghai, China). The crude peptides (1 mM) in 1 ml 5% v/v DMSO, 65% v/v 20 mM NH4HCO3, pH 8.0 and 30% v/v ACN, were reacted with TBMB (1.2 mM) for 1 hr at 30 °C. The reaction product was purified by preparative reversed-phase high performance liquid chromatography (HPLC) system (PrepLC 4000, Waters, Millford, MA, USA) and a Vydac C18 (218TP) column (22 x 250 mm) (Grace & Co., USA). At a flow rate of 20 ml/min, a linear gradient was applied with a mobile phase composed of eluant A (0.1% v/v aqueous trifluoroacetic acid (TFA) solution, 99.9 % v/v H2O) and eluant B (94.9% v/v ACN, 5% v/v H2O and 0.1 % v/v TF A). The purified peptides were freeze-dried and dissolved in H2O for activity measurements.
(§2) Residual activities were measured in buffer containing 10 mM Tris-Cl, pH 7.4, 150 mM NaCl, 10 mM MgCl2, 1mM CaCl2, 0.1% w/v BSA, 0.01% v/v Triton-X100 and 5% v/v DMSO in volume of […]. […] Absorption and fluorescence intensity were measured with a Spectramax absorption plate reader (recording at 410 nm; Molecular Devices, USA) and a Spectramax Gemini fluorescence plate reader (excitation at 355 nm, emission at 460 nm; Molecular Devices, USA), respectively. […]

The target in another data set is T2, Murine uPA (Mus musculus, UniProt P06869).
T2 construct: mouse uPA (MUPA-LMW, recombinantly produced in insect cells, 31 kDa); purchased Molecular Innovations, Novi, MI, USA MUPA-LMW; host or cells: insect cells
T2 sequence (P06869 180-433 limits assumed): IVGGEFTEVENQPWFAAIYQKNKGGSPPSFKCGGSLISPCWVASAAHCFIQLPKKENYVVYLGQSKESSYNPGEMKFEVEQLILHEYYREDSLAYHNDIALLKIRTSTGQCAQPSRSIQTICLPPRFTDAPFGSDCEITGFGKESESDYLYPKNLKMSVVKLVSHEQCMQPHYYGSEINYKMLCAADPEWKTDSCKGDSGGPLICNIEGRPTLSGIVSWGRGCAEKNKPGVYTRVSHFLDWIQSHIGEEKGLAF
Kind of data set: Specificity determination of chemically synthesized inhibitors, residual protease activity. To be noted: murine uPA versus human uPA. Type of data set: biochemical. The procedure: as §1, §2

In data set [4] the target is T1, uPA. To be noted: literature, cited from earlier work.

Where two headings read alike, the source gives them in different places. Numbered stars: 1 amine (or outer) side, 2 acyl side, 3 side chain; on linkers, the order of the positions; unused ones are H or OH. Bridge positions count the residues as written; N and C are the ends. Ends that are not written are not given here. Peptide text beside a SMILES is read from it. TBMB = c1c(C[*:1])cc(C[*:3])cc1C[*:2]

In general, Ki refers to the equilibrium dissociation constant of an inhibitor or competing ligand from its target. A word on the IC50: it is the concentration that inhibits the measured activity by half. Read a high IC50 as a need for much substance.

Chain of tPA (P00750 36-562, species assumed): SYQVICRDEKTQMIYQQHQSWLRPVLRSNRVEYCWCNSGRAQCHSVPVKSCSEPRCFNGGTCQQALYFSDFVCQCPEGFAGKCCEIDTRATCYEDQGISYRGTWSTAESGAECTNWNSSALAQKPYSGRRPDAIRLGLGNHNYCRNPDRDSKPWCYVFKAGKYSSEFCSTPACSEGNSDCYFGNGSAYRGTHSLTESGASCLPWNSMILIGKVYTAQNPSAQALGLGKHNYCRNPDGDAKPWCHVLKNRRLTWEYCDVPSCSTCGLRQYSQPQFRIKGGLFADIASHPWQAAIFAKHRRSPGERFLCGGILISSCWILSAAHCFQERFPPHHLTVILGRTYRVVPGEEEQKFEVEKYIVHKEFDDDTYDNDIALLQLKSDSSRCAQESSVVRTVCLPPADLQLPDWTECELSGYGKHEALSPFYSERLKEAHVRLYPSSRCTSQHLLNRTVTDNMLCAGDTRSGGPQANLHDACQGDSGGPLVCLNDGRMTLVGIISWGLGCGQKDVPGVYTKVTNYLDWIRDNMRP

For the compound `N=C(N)c1ccc(CNC(=O)[C@H](CO)NC(=O)[C@@H](CO)NS(=O)(=O)Cc2ccccc2)cc1` [CJ-463, benzylsulfonyl-D-Ser-Ser-4-amidinobenzylamide], the Ki on uPA [1] is 20 nM. The inhibition result in the data set with thrombin, at tPA, in the data set on factor Xa and at plasma kallikrein was “does not inhibit significantly” in each case. In [2], the “primary tumour growth and metastasis formation” value is “reduce primary tumour growth and metastasis formation”.

On to `CC(C)[C@@H]1NC(=O)[C@H](CCC(=O)O)NC(=O)[C@H](Cc2ccc(O)cc2)NC(=O)[C@H](CCCN=C(N)N)NC(=O)[C@H](CO)NC(=O)[C@@H](NC(=O)[C@H](C)N)CSCc2cc3cc(c2)CSC[C@H](NC(=O)[C@H](CC(=O)O)NC1=O)C(=O)N[C@@H](CCCN=C(N)N)C(=O)NCC(=O)N[C@@H](CCCN=C(N)N)C(=O)NCC(=O)N[C@@H](CO)C(=O)N[C@@H](C)C(=O)N[C@H](C(=O)NCC(N)=O)CSC3` [UK18] (H-ACSRYEVDCRGRGSACG-NH2; linker 2-9-16 via TBMB), for which the cell viability entry in the data set on MDA-MB-231 cells was “not toxic”. Further, the midpoint of inhibition at uPA [3], the IC50, lay at 47.2 nM. The Ki at uPA [3] (corresponding to the IC50) stood at 30.1 nM.

With `CC(C)[C@@H]1NC(=O)[C@H](CCC(=O)O)NC(=O)[C@H](Cc2ccc(O)cc2)NC(=O)[C@H](CCCNC(=N)N)NC(=O)[C@H](CO)NC(=O)[C@@H](NC(=O)[C@H](C)N)CSCc2cc3cc(c2)CSC[C@H](NC(=O)[C@H](CC(=O)O)NC1=O)C(=O)N[C@@H](CCCNC(=N)N)C(=O)NCC(=O)N[C@@H](CCCNC(=N)N)C(=O)NCC(=O)N[C@@H](CO)C(=O)N[C@@H](C)C(=O)N[C@H](C(=O)NCC(N)=O)CSC3` [UK18] (H-ACSRYEVDCRGRGSACG-NH2; linker 2-9-16 via TBMB), the “Ki higher than the Ki of human uPA” value at Murine uPA is reported as “around 1400 times”.

In the case of “CSWRGLENHRMC (cysteine pairing not given here) [upain-1]”, the figures for the Ki in the data set with uPA [4] (at pH 6.0) and with uPA [4] (at physiological pH) were 6700 nM and 29900 nM, respectively.
